These results are taken from PubChem BioAssay (NCI).

Among the test systems are CAKI-1 renal; HT29 colon; NCI-H460 lung; OVCAR-3 ovarian; SK-MEL-28 melanoma; SK-OV-3 ovarian; SNB-75 CNS; SR leukemia; NCI/ADR-RES ovarian.
What all share (experiment): NCI anticancer screen, dose series, 48 h

The structures appear in SMILES notation.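 Values below derive from 48-hour exposures of cells grown in 96-well plates, with endpoints linearly interpolated between the two concentrations bracketing the appropriate inhibition level. GI50: concentration for 50% inhibition of growth. TGI: concentration producing complete growth inhibition.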 Bounds are passed on as bounds.

In the case of `O=[N+]([O-])c1ccccc1S(=O)c1ccccc1` (centres undefined), the TGI in the experiment with CAKI-1 renal, in the experiment on HT29 colon, with NCI-H460 lung, with OVCAR-3 ovarian, in the experiment with SK-MEL-28 melanoma and in the experiment on SK-OV-3 ovarian was greater than 100 µM in each case. Besides, the TGI in the experiment on SNB-75 CNS is 58.7 µM; with SR leukemia, greater than 100 µM.

In the case of `O=C1CCC2(c3ccc(F)cc3)Nc3ccccc3N12` (centres undefined), the TGI in the experiment on CAKI-1 renal, in the experiment on HT29 colon, with NCI-H460 lung, in the experiment with OVCAR-3 ovarian, in the experiment with SK-MEL-28 melanoma and with SK-OV-3 ovarian was greater than 100 µM each time. The molecule also displayed a TGI in the experiment with SNB-75 CNS greater than 100 µM.

Consider `Cc1cccc(C)c1NC(=O)CCC(=O)NNC(=O)c1cc(O)c2ccccc2c1`, for which the TGI in the experiment with CAKI-1 renal, in the experiment with HT29 colon, in the experiment with NCI-H460 lung, with OVCAR-3 ovarian, in the experiment on SK-MEL-28 melanoma and in the experiment with SK-OV-3 ovarian was greater than 100 µM in each case. Besides, the TGI in the experiment on SNB-75 CNS and in the experiment with SR leukemia was greater than 100 µM in each case.

Take `COC(=O)OCC1OC(N2C(=O)NC(=O)C(I)C2N=[N+]=[N-])CC1OC(=O)OC` (centres undefined): the TGI in the experiment on CAKI-1 renal, in the experiment with HT29 colon, in the experiment with NCI-H460 lung, with OVCAR-3 ovarian, with SK-MEL-28 melanoma and in the experiment with SK-OV-3 ovarian was greater than 100 µM throughout. For the same molecule, the TGI with SNB-75 CNS and in the experiment with SR leukemia was greater than 100 µM each time.

With `[Cu+2].[Cu+2].[O-]c1ccccc1C=Nc1ccccc1[O-].[O-]c1ccccc1C=Nc1ccccc1[O-]`, the GI50 in the experiment on CAKI-1 renal was 10.8 µM; in the experiment with HT29 colon, 6.05 µM; with OVCAR-3 ovarian, 5.56 µM; in the experiment with SK-MEL-28 melanoma, 13.3 µM; in the experiment with SK-OV-3 ovarian it was 25.5 µM; in the experiment on SNB-75 CNS it was 10.2 µM. The TGI in the experiment with CAKI-1 renal came to 22.8 µM; in the experiment with HT29 colon, 27.4 µM; with OVCAR-3 ovarian it was 15.8 µM; in the experiment with SK-MEL-28 melanoma, 26 µM; in the experiment with SK-OV-3 ovarian, 40.4 µM; in the experiment with SNB-75 CNS it was 21.8 µM.

Turning to `CN(C)CCC1(C2=CCCC2)CC/C(=C\c2ccc3c(c2)OCO3)C1=O` (centres undefined), the TGI is 25.2 µM in the experiment with HT29 colon, 36.2 µM in the experiment with NCI-H460 lung, 31.6 µM in the experiment with OVCAR-3 ovarian and 27.4 µM with SK-MEL-28 melanoma.

Consider `CCc1nc2c(O)ccc(O)c2nc1C`, for which the TGI in the experiment on CAKI-1 renal stood at 33.2 µM; with HT29 colon, 34.9 µM; with NCI-H460 lung, 36.1 µM; in the experiment on OVCAR-3 ovarian, 28.5 µM; in the experiment with SK-MEL-28 melanoma, 34.4 µM; with SK-OV-3 ovarian, 34.2 µM. In addition, the results for the TGI in the experiment with SNB-75 CNS and with SR leukemia were 37.6 µM and greater than 100 µM, respectively.

Consider `c1ccc2c(c1)O[As](O[As]1Oc3ccccc3O1)O2`, for which the GI50 in the experiment on CAKI-1 renal is 2.56 µM; in the experiment with HT29 colon, 2.75 µM; in the experiment on NCI-H460 lung, 4.43 µM; in the experiment with NCI/ADR-RES ovarian, 3.58 µM; with OVCAR-3 ovarian, 2.35 µM; with SK-MEL-28 melanoma, 3.04 µM. For the same molecule, the GI50 in the experiment with SK-OV-3 ovarian was 11.7 µM; with SNB-75 CNS it was 1.87 µM; with SR leukemia, 1.61 µM. For the same molecule, the TGI was 8.54 µM in the experiment with CAKI-1 renal; 8.74 µM in the experiment on HT29 colon; 23.6 µM with NCI-H460 lung; greater than 100 µM in the experiment on NCI/ADR-RES ovarian; 7.41 µM in the experiment with OVCAR-3 ovarian; 15.1 µM with SK-MEL-28 melanoma. The results for the TGI with SK-OV-3 ovarian, with SNB-75 CNS and in the experiment on SR leukemia were 26 µM, 12 µM and 7.39 µM, respectively.

For the molecule `Cc1c(/C=C2\CC/C(=C\c3[nH]c(C(=O)OC(C)(C)C)c(C)c3C)C2=O)[nH]c(C(=O)OC(C)(C)C)c1C`, the TGI in the experiment with CAKI-1 renal, in the experiment on HT29 colon, with NCI-H460 lung, with OVCAR-3 ovarian, with SK-OV-3 ovarian and in the experiment on SNB-75 CNS was greater than 100 µM throughout. In addition, the TGI with SR leukemia is greater than 100 µM.

For the molecule `O=C(/C=C/c1ccc(OCCCCCCCCCCOc2ccc(/C=C/C(=O)c3ccc(Cl)cc3)cc2)cc1)c1ccc(Cl)cc1`, the TGI in the experiment with CAKI-1 renal, with HT29 colon, in the experiment with NCI-H460 lung, in the experiment with OVCAR-3 ovarian, with SK-MEL-28 melanoma and with SK-OV-3 ovarian was greater than 100 µM throughout. In addition, the TGI in the experiment on SNB-75 CNS was greater than 100 µM.

In the case of `COc1cc2c(-c3nc4cc(Cl)c(F)cc4s3)cc(=O)oc2c(C)c1OC`, the GI50 with CAKI-1 renal is 0.307 µM; in the experiment with NCI-H460 lung, 2.11 µM; with SK-MEL-28 melanoma, 1.81 µM; with SK-OV-3 ovarian, 1.63 µM; with SNB-75 CNS, 0.62 µM. Besides, the TGI is 0.78 µM in the experiment with CAKI-1 renal; 4.61 µM in the experiment with NCI-H460 lung; 3.49 µM in the experiment with SK-MEL-28 melanoma; 3.03 µM with SK-OV-3 ovarian; 1.92 µM with SNB-75 CNS.

As to `CN(C)CCNC(=O)c1ccc2ccc3cccnc3c2n1`, the TGI with CAKI-1 renal was greater than 85.5 µM; in the experiment on HT29 colon, greater than 100 µM; in the experiment with NCI-H460 lung it was 35.9 µM; in the experiment with OVCAR-3 ovarian, 99 µM; in the experiment on SK-MEL-28 melanoma, greater than 61.6 µM; in the experiment on SK-OV-3 ovarian, greater than 100 µM. Also, the results for the TGI with SNB-75 CNS and in the experiment with SR leukemia were 34.4 µM and 30.7 µM, respectively.

As for `CC(=O)[CH-]C(=O)c1ccccc1.CC(=O)[CH-]C(=O)c1ccccc1.[Nd+3].[OH-].[OH3+]`, the GI50 in the experiment on CAKI-1 renal, in the experiment on HT29 colon, with NCI-H460 lung, in the experiment with OVCAR-3 ovarian, in the experiment on SK-MEL-28 melanoma and with SK-OV-3 ovarian was greater than 100 µM in each case. Also, the GI50 with SNB-75 CNS was 60.5 µM. For the same molecule, the TGI in the experiment with CAKI-1 renal, in the experiment with HT29 colon, with NCI-H460 lung, with OVCAR-3 ovarian, with SK-MEL-28 melanoma and in the experiment on SK-OV-3 ovarian was greater than 100 µM in each case. In the experiment on SNB-75 CNS, this molecule had a TGI greater than 100 µM.

Take `CS(=O)(=O)C1S(=O)(=O)OCCOS1(=O)=O`: the TGI with CAKI-1 renal, in the experiment on HT29 colon, with NCI-H460 lung, with OVCAR-3 ovarian, in the experiment on SK-MEL-28 melanoma and in the experiment on SK-OV-3 ovarian was greater than 100 µM each time. Further, the TGI in the experiment on SNB-75 CNS and in the experiment with SR leukemia was greater than 100 µM each time.

Take `COc1cc2c(cc1OC)C1c3ccccc3C(C#N)(C2)N(C(=O)c2ccccc2)C1O` (centres undefined): the TGI in the experiment on HT29 colon, in the experiment on NCI-H460 lung, in the experiment on OVCAR-3 ovarian, in the experiment with SK-MEL-28 melanoma, in the experiment with SK-OV-3 ovarian and in the experiment on SNB-75 CNS was greater than 100 µM throughout. The same molecule registered a TGI in the experiment with SR leukemia greater than 100 µM.
